This passage reports Kd results from US12188937B2, “Peptoid compound and detection chip coupled with peptoid compound on the surface” (BEIJING BOE TECHNOLOGY DEVELOPMENT CO., LTD., priority 2019, dated 2025).

In this assay the target is T1, EpCAM protein (Homo sapiens, UniProt P16422).
T1 construct: purchased Sino Biological Inc
T1 sequence (P16422 24-314): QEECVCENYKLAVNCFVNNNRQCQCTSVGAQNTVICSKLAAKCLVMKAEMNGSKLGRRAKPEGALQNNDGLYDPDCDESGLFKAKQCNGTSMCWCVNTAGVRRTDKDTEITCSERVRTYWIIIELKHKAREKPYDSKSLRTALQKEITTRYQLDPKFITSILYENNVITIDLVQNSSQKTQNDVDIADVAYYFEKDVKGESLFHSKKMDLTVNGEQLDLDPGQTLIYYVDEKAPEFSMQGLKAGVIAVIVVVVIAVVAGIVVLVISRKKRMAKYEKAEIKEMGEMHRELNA
The experiment in a line: surface plasmon resonance imaging (SPRi) test of binding ability of chip-spotted peptoid to EpCAM protein. The conditions noted are these: EpCAM 5.68-91.2 nM in PBS, binding 300 s, dissociation 300 s, fitted with BIAevalution 4.1, read-out: equilibrium dissociation constant KD. On the technique in general: In SPR one partner is held on a chip, and binding of the other changes the refractive index at the surface.

As to `NCCCCNC(=O)CN(CCc1ccc(-c2ccccc2)cc1)C(=O)CN(CCC(=O)O)C(=O)CNCCc1ccccc1` [Formula II], the equilibrium dissociation constant (Kd) came out at 0.0187 µM.

As usually defined, the Kd is the concentration at which binding is half-saturated.
